From patent US11046722B2, “Sulphated disaccharides for the treatment of neuropathic pain” (BIOIBERICA, S.A.U., priority 2017, dated 2021) come the findings set out here.

Structures are written as SMILES.

Test [1] has as its system mechanical allodynia induced in mice by chronic ligation of the sciatic nerve. As to the kind of experiment: Mechanical allodynia produced by chronic ligation of the sciatic nerve (von Frey, 50% pain threshold). The settings on record: 7 days after surgery, 45 minutes before measurement. Format: in vivo. From the text:
In Example 2, an experimental trial on mechanical allodynia induced in mice by chronic ligation of the sciatic nerve is described, according to the model described in the article by Decosterd et al., Spared nerve injury: an animal model of persistent peripheral neuropathic pain, Pain, 2000, 149-158. This model is based on causing mechanical allodynia in mice by means of ligation of two of the three branches of the sciatic nerve (tibial and peroneal), leaving the sural branch intact. The allodynia induced in this manner is quantified by the reduction observed in the threshold force that is necessary to apply in order to produce animal's paw withdrawal in those subjected to the ligation. As described in such example, it is observed that the administration of different doses of compound Ic is effective in reversing the allodynia induced in this model (FIGS. 1 and 2).
For this trial, groups of 6 to 7 mice were used for each group. Mechanical allodynia was induced in the animals (except for the control group) by chronic ligation of the sciatic nerve, and the allodynia induced in this manner was registered 7 days after performing the surgery.
Compound Ic was administered at different doses (3, 30 and 60 mg/Kg) as well as only saline solution as a control, and the positive control gabapentin (40 mg/Kg). The products were administered by stomach tube 45 minutes before performing the allodynia measurement, which was quantified using von Frey filaments, according to the force threshold necessary to cause paw withdrawal of the animal.
The results are summarized in FIG. 2, where the Y-axis represents half of the threshold force that is necessary to apply in order to cause paw withdrawal (50% pain threshold, in grams, g) and the X-axis indicates the different groups and treatments carried out. […]
An analogous test was carried out in which several doses of compound Ic (30, 60 and 120 mg/Kg) and gabapentin (40 mg/Kg) were administered, and the 50% pain threshold was measured at different times after the administration in order to evaluate the kinetic of the pharmacological effect and the total duration of the anti-allodynic effect. […]

For test [2], the system named is cold allodynia induced in mice by subcutaneous carrageenan injection. As to the kind of experiment: Cold allodynia induced by subcutaneous carrageenan injection (acetone test, time spent licking the paw). In kind it is in vivo. The note with it: carrageenan 1% 50 μl s.c., 60 mg/Kg orally 3.5 hours after injection, acetone test 45 minutes after treatment. The text has this:
In Example 4 an experimental model is used of cold allodynia induced in mice by subcutaneous carrageenan injection, as described in the article by Choi et al., Behavioral signs of ongoing pain and cold allodynia in a rat model of neuropathic pain, Pain, 1994, 59 (3), 369-376. This trial is based on causing cold allodynia in mice by subcutaneous carrageenan injection in the plantar surface of one of the hind paws of the animals, and subsequently measuring the sensitivity to cold by applying acetone on the plantar surface of both hind paws: the ipsilateral (the same one where the carrageenan was injected) and the contralateral (the unsensitized hind paw). The sensitivity to cold is quantified by measuring the time the animals spent licking the paw for 5 minutes after the application of the acetone. As described in such example, compound Ic is effective in reversing the cold allodynia according to this model (FIG. 6).
In this trial 16 mice were used to which 50 μl of a carrageenan solution at 1% were administered by subcutaneous injection in the plantar surface of one of the hind paws. After 3.5 hours since the injection, 60 mg/Kg of the Ic compound was administered orally to 9 of the animals, while only the vehicle (saline solution) was administered to the remaining 7 (control group). […]

Consider `CO[C@H]1O[C@H](COS(=O)(=O)[O-])[C@@H](OS(=O)(=O)[O-])[C@H](O[C@@H]2O[C@H](C(=O)[O-])[C@@H](O)[C@H](O)[C@H]2O)[C@H]1NC(C)=O.[Na+].[Na+].[Na+]` [Compound Ic, methyl 2-acetamido-2-desoxi-3-O-(β-D-glucopyranosyluronic acid)-4,6-di-O-sulfo-α-D-glucopyranoside trisodium salt], for which the anti-allodynic effect entry in test [1] (3 mg/Kg by stomach tube) is listed as “notable”. Moreover, in test [1] (30 mg/Kg by stomach tube), the anti-allodynic effect entry is “notable”. Besides, in test [1] (60 mg/Kg by stomach tube), the analgesic effect entry is given as “achieved an analgesic effect” and the “reversal of the allodynia” value is on record as “total reversal of the allodynia”. Further, the “reversal of cold allodynia (ipsilateral paw)” value in test [2] is on record as “completely reversed”.
